Structures can show the parent of a compound that is named as a salt.

The first test has as its system IL-2 production. The experiment in a line: Inhibition of IL-2 production in PHA-activated Jurkat cells (ELISA). Format: cell-based, human. Conditions: Homo sapiens, Jurkat, 20 h, Jurkat cells, PHA 2.5 μg/mL, 20 hours, IL-2 ELISA; read-out: IC50 (inhibition of IL-2 production). How it is done:
Jurkat cells were placed in a 96 well plate (0.5 million cells per well in 1% FBS medium) then a test compound of this invention was added at different concentrations. After 10 minutes, the cells were activated with PHA (final concentration 2.5 μg/mL) and incubated for 20 hours at 37° C. under CO2. The final volume was 200 μL. Following incubation, the cells were centrifuged and the supernatants collected and stored at −70° C. prior to assaying for IL-2 production. A commercial ELISA kit (IL-2 Eli-pair, Diaclone Research, Besancon, France) was used to detect production of IL-2, from which dose response curves were obtained. The IC50 value was calculated as the concentration at which 50% of maximum IL-2 production after stimulation was inhibited versus a non-stimulation control.
For orientation: In an ELISA, binding on a coated surface is turned into a signal by an enzyme label.
On to `Cc1ccc(-c2ncco2)cc1-c1ccc(NC(=O)c2ccncc2F)cc1` [Compound 10, 3-Fluoro-N-(2′-methyl-5′-oxazol-2-yl-biphenyl-4-yl)-isonicotinamide], for which the IC50 (in general, the concentration at which inhibition is half-maximal) worked out at 3 nM.
The same measure, in the same setting: next, `Cc1ccc(-c2ncco2)cc1-c1ccc(NC(=O)c2c(F)cncc2F)cc1` [Compound 11, 3,5-Difluoro-N-(2′-methyl-5′-oxazol-2-yl-biphenyl-4-yl)-isonicotinamide]: 3 nM; `COc1ccc(-c2ncco2)cc1-c1ccc(NC(=O)c2c(F)cccc2F)cc1` [Compound 13, 2,6-Difluoro-N-(2′-methoxy-5′-oxazol-2-yl-biphenyl-4-yl)-benzamide]: 6 nM.
Regarding `Cc1ccc(-c2nccs2)cc1-c1ccc(NC(=O)c2c(F)cccc2F)cc1` [Compound 15, 2,6-Difluoro-N-(2′-methyl-5′-thiazol-2-yl-biphenyl-4-yl)-benzamide], the IC50 was 2 nM.
Still for that read-out and setting: next, `Cc1cnccc1C(=O)Nc1ccc(-c2cc(-c3ncco3)ccc2Cl)cc1` [Compound 17, 3-Methyl-N-(2′-chloro-5′-oxazol-2-yl-biphenyl-4-yl)-isonicotin-amide, hydrochloride]: 7 nM.
With `COc1ncc(Cl)cc1-c1ccc(NC(=O)c2ccncc2C)cc1` [Compound 18, 3-Methyl-N-[4-(5-chloro-2-methoxy-pyridin-3-yl)-phenyl]-isonicotinamide], the concentration for half-maximal inhibition (IC50) is 9 nM.
In the case of `COc1ncc(Cl)cc1-c1ccc(NC(=O)c2ccncc2F)cc1` [Compound 19, 3-Fluoro-N-[4-(5-chloro-2-methoxy-pyridin-3-yl)-phenyl]-isonicotinamide], the IC50 was found to be 19 nM.
In the case of `Cc1cnccc1C(=O)Nc1ccc(-c2cc(-c3cccnc3)ccc2C)cc1` [Compound 20, 3-Methyl-N-[5′-(pyridin-3-yl)-2′-methyl-biphenyl-4-yl]-isonicotinamide], the IC50 came out at 8 nM.
With `Cc1ccc(-c2cccnc2)cc1-c1ccc(NC(=O)c2snnc2C)cc1` [Compound 21, 4-Methyl-[1,2,3]thiadazole-5-carboxylic acid [2′-methyl-5′-(pyridin-3-yl)-biphenyl-4-yl]-amide], the IC50 was determined as 6 nM.
For `Cc1ccc(-c2cccnc2)cc1-c1ccc(NC(=O)c2c(F)cccc2F)cc1` [Compound 22, 2,6-Difluoro-N-[2′-methyl-5′-(pyridine-3-yl)-biphenyl-4-yl]-benzamide], the IC50 turned out to be 1 nM.
For the molecule `Cc1ccc(-c2ccccn2)cc1-c1ccc(NC(=O)c2c(F)cccc2F)cc1` [Compound 23, 2,6-Difluoro-N-[2′-methyl-5′-(pyridine-2-yl)-biphenyl-4-yl]-benzamide], the IC50 was 5 nM.
Regarding `Cc1ccc(-c2ccccn2)cc1-c1ccc(NC(=O)c2snnc2C)cc1` [Compound 24, 4-Methyl-[1,2,3]thiadazole-5-carboxylic acid [2′-methyl-5′-(pyridin-2-yl)-biphenyl-4-yl]-amide], the IC50 was 15 nM.
Still for that read-out and setting: next, `COc1ccc(-c2cnco2)cc1-c1ccc(NC(=O)c2snnc2C)cc1` [Compound 25, 4-Methyl-[1,2,3]thiadiazole-5-carboxylic acid [2′-methoxy-5′-(oxazol-5-yl)-biphenyl-4-yl]-amide]: 3 nM; `Cc1cnccc1C(=O)Nc1ccc(-c2cc(-c3cnco3)ccc2C)cc1` [Compound 26, 3-Methyl-N-[5′-(oxazol-5-yl)-2′-methyl-biphenyl-4-yl]-isonicotinamide]: 5 nM.
Consider `COc1ccc(-c2cnco2)cc1-c1ccc(NC(=O)c2c(F)cccc2F)cc1` [Compound 27], for which the IC50 was 4 nM.

The test is the same for the next values; noted with them: Homo sapiens; Jurkat cells, PHA 2.5 μg/mL, 20 hours, IL-2 ELISA; read-out: IC50 (inhibition of IL-2 production).
Regarding `Cc1cnccc1C(=O)Nc1ccc(-c2cc(-c3ncco3)ccc2C)cc1` [Compound 7, 3-Methyl-N-(2′-methyl-5′-oxazol-2-yl-biphenyl-4-yl)-isonicotinamide, hydrochloride], the IC50 turned out to be 8 nM.

The same test, now with this note: Jurkat cells, PHA 2.5 μg/mL, 20 hours, IL-2 ELISA; read-out: IC50 (inhibition of IL-2 production).
Regarding `Cc1cnccc1C(=O)Nc1ccc(-c2cc(-c3nccs3)ccc2C)cc1` [Compound 14, 3-Methyl-N-(2′-methyl-5′-thiazol-2-yl-biphenyl-4-yl)-isonicotin-amide], the IC50 came to 10 nM.

The values are drawn from patent US8592486B2, “Compounds for inflammation and immune-related uses” (Synta Pharmaceuticals Corp., priority 2005, dated 2013).
